This is an account of results in patent US8981111B2 (priority 2008, dated 2015).

A short description of this data set: log P (HPLC/MS data of the preparation examples). To be noted: method [b]: LC-MS at pH 2.7, 0.1% formic acid in water / acetonitrile, linear gradient 10% to 95% acetonitrile.

Each structure is given as a SMILES string.

Take `Cn1ncnc1C(=NOCc1cccc(NC(=O)Cc2cccc(F)c2)n1)c1ccccc1` [Example 235]: the log p is 3.15^[b].

Regarding `COCCC(=O)Nc1cccc(CON=C(c2ccccc2)c2ncnn2C)n1` [Example 237], the log p is 2.17^[b].

Take `Cn1ncnc1C(=NOCc1cccc(NC(=O)CCc2cccc(Cl)c2)n1)c1ccccc1` [Example 238]: the log p is 3.73^[b].

As for `Cn1ncnc1C(=NOCc1cccc(NC(=O)CCc2cccc(C(F)(F)F)c2)n1)c1ccccc1` [Example 239], the log p was 3.87^[b].

In the case of `CC(C(=O)Nc1cccc(CON=C(c2ccccc2)c2ncnn2C)n1)c1ccccc1` (centres unmarked) [Example 240], the log p was 3.42^[b].

As for `Cn1ncnc1C(=NOCc1cccc(NC(=O)Cc2cc(F)cc(F)c2)n1)c1ccccc1` [Example 241], the log p was 3.33^[b].

Consider `Cn1ncnc1C(=NOCc1cccc(NC(=O)Cc2ccc(Cl)cc2)n1)c1ccccc1` [Example 242], for which the log p is 3.46^[b].

With `Cn1ncnc1C(=NOCc1cccc(NC(=O)Cc2ccccc2Cl)n1)c1ccccc1` [Example 243], the log p was 3.31^[b].

On to `Cn1ncnc1C(=NOCc1cccc(NC(=O)Cc2cccc(C(F)(F)F)c2)n1)c1ccccc1` [Example 244], for which the log p was 3.64^[b].

As to `Cn1ncnc1C(=NOCc1cccc(NC(=O)Cc2ccccc2C(F)(F)F)n1)c1ccccc1` [Example 245], the log p was 3.51^[b].

`COc1ccc(CC(=O)Nc2cccc(CON=C(c3ccccc3)c3ncnn3C)n2)cc1` [Example 246]: the log p was 3.02^[b].

As for `COc1cccc(CC(=O)Nc2cccc(CON=C(c3ccccc3)c3ncnn3C)n2)c1` [Example 247], the log p was 3.06^[b].

Take `Cn1ncnc1C(=NOCc1cccc(NC(=O)C2CCCCC2)n1)c1ccccc1` [Example 248]: the log p was 3.39^[b].

As to `Cn1ncnc1C(=NOCc1cccc(NC(=O)CCCc2ccccc2)n1)c1ccccc1` [Example 249], the log p was 3.6^[b].

For the compound `Cn1ncnc1C(=NOCc1cccc(NC(=O)CSc2ccccc2)n1)c1ccccc1` [Example 250], the log p was 3.33^[b].

For `Cn1ncnc1C(=NOCc1cccc(NC(=O)C2CCCCO2)n1)c1ccccc1` (centres unmarked) [Example 251], the log p was 3.15^[b].

With `CCc1ccc(C(=O)Nc2cccc(CON=C(c3ccccc3)c3ncnn3C)n2)cc1` [Example 252], the log p was 3.73^[b].

`CCCCCOC(=O)Nc1cccc(CON=C(c2ccccc2)c2cncn2C)n1` [Example 253]: the log p was 2.39^[b].

For the compound `CCCCCCCCCC(=O)Nc1cccc(CON=C(c2ccccc2)c2cncn2C)n1` [Example 254], the log p was 3.09^[b].

Turning to `Cn1cncc1C(=NOCc1cccc(NC(=O)COc2ccccc2)n1)c1ccccc1` [Example 255], the log p was 2.04^[b].

As for `CCCC(=O)Nc1cccc(CON=C(c2ccccc2)c2cncn2C)n1` [Example 256], the log p was 1.6^[b].

As to `CCCCC(=O)Nc1cccc(CON=C(c2ccccc2)c2cncn2C)n1` [Example 258], the log p was 1.82^[b].

In the case of `CCC(C(=O)Nc1cccc(CON=C(c2ccccc2)c2cncn2C)n1)c1ccccc1` (centres unmarked) [Example 259], the log p is 2.3^[b].

`Cn1c(C(=NOCc2nccc(N(C(=O)C3CC3)C(=O)C3CC3)n2)c2ccccc2)cnc1C(=O)C1CC1` [Example 260]: the log p is 3.73^[b].

With `CCCc1ccc(C(=O)Nc2cccc(CON=C(c3ccccc3)c3ncnn3C)n2)cc1` [Example 261], the log p was 4.24^[b].

As for `CCC(C)CC(=O)Nc1cccc(CON=C(c2ccccc2)c2nccn2C)n1` (centres unmarked) [Example 262], the log p is 2.54^[b].

On to `CCCC(C)C(=O)Nc1cccc(CON=C(c2ccccc2)c2nccn2C)n1` (centres unmarked) [Example 263], for which the log p is 2.54^[b].

With `Cn1ccnc1C(=NOCc1cccc(NC(=O)Cc2cccs2)n1)c1ccccc1` [Example 264], the log p was 2.23^[b].

With `Cn1ccnc1C(=NOCc1cccc(NC(=O)Cc2ccccc2Cl)n1)c1ccccc1` [Example 265], the log p is 2.61^[b].
